Experimental data reported in publication PMC6152192, “Novel Methylselenoesters as Antiproliferative Agents” (Molecules : A Journal of Synthetic Chemistry and Natural …, 2017).

Columns and labels:
[1] = system: glutathione-glutaredoxin (GSH-Grx) system; test: Glutaredoxin/glutathione assay (NADPH consumption); type: biochemical; details: 1 mM GSH, 200 μM NADPH, yeast GR, 1 μM hGrx1 when required, 45 min
Description: The assay was performed as previously described, with minor modifications and adapted for a 96-well plate. A mixture of 0.1 M Tris pH 8, 2 mM EDTA pH = 8, 0.1 mg/mL BSA, 1 mM GSH, 200 μM NADPH, and 0.008 OD/mL yeast GR was prepared (all reagents were purchased from Sigma-Aldrich). Reactions were performed with 1 μM hGrx1 (IMCO Corporation, Stockholm, Sweden) when corresponding and different concentrations of the compounds. A 100 μL mixture was added, and the final volume was adjusted to 110 μL per well. Consumption of NADPH was monitored at A340 on a VersaMax microplate reader (Molecular Devices) for 45 min.
(§1) Figure 7 Compounds 5 and 15 are substrates for thioredoxin reductase but not for the glutathione-glutaredoxin system. (A) NADPH consumption indicating reduction of compounds 5, 15 or MSA as control by thioredoxin reductase. The reaction mixture contained 100 nM TrxR1, 227 μM NADPH and the corresponding amount of compound in TE buffer (20 mM Tris, 2 mM EDTA pH = 8); (B) NADPH consumption indicating reduction of MSA by glutathione in the presence or absence of glutaredoxin. The reaction mixture contained the corresponding amount of compound, 0.1 M Tris, 2 mM EDTA pH = 8, 0.1 mg/mL BSA, 1 mM GSH, 200 μM NADPH, 0.008 OD/mL yeast GR and 1 μM hGrx1 when required. Only results for MSA are shown, as compounds 5 and 15 were not reduced.

[2] = system: MCF7 (mammary adenocarcinoma); test: MTT viability assay, MCF7; type: cell-based; details: MCF7, 72 h, MTT; for CC50: read-out: LC50 (the source's name)
Description: (§2) The novel compounds were tested against a panel of different cancer lines: PC-3 (prostate adenocarcinoma), MCF7 (mammary adenocarcinoma), HTB-54 (lung carcinoma), K-562 (chronic myelogenous leukemia) and HT-29 (colorectal adenocarcinoma). Two non-malignant cell lines, BEAS-2B (bronchial epithelial) and 184B5 (mammary epithelial) were also included to evaluate the toxicity of the novel synthesized compounds. The antiproliferative activity was measured with the [3-(4,5-dimethylthiazol-2-yl)-2,5-diphenyltetrazolium bromide] (MTT) assay after 72 h treatment. Six concentrations ranging from 0.1 to 100 μM were tested. MSA is largely known as the main CH3SeH putative precursor and was therefore included as positive control. The following parameters were calculated: GI50 (concentration which reduces the growth by 50%), TGI (concentration completely inhibiting growth) and LC50 (concentration that kills 50% of the cells).
(§3) All cells were purchased from the American Type Culture Collection (ATCC, Barcelona, Spain). HT-29 (colorectal adenocarcinoma), HTB-54 (grade III lung carcinoma), MCF7 (mammary adenocarcinoma), PC-3 (grade IV prostate adenocarcinoma) and K-562 (chronic myelogenous leukemia) were cultured in RPMI (Gibco, Madrid, Spain), 10% FBS (Gibco), 100 units/mL penicillin and 100 μg/mL streptomycin (Gibco). BEAS-2B cell line (normal epithelial lung) was cultured in DMEM (Gibco), 10% FBS, 100 units/mL penicillin and 100 μg/mL streptomycin. 184B5 (normal mammary gland) cell line was cultured in DMEM:F12 supplemented with 5% FBS, 1 × ITS (Lonza, Barcelona, Spain), 100 nM hydrocortisone (Sigma-Aldrich), 2 mM sodium pyruvate (Lonza), 20 ng/mL EGF (Sigma-Aldrich), 0.3 nM trans-retinoic acid (Sigma-Aldrich), 100 units/mL penicillin and 100 µg/mL streptomycin. Cells were cultured at 37 °C under 5% CO2.
(§4) Cell viability after treatment was assessed by the well-known 3-(4,5-dimethyl-thiazol-2-yl)-2,5-diphenyltetrazolium bromide (MTT, Sigma-Aldrich) assay. Briefly, 10,000 cells were seeded in 96-well plates, treated and incubated for 72 h. Dilutions of the compounds in cell medium were freshly prepared from a 0.01 M stock in DMSO. After treatment, 50 μL of MTT solution in PBS (2 mg/mL) were added and cells were incubated for 4 h. Medium was removed and 150 μL of DMSO was added to dissolve the formed formazan crystals. Absorbance was read at 550 nm in a microplate absorbance reader (Sunrise, Tecan, Männedorf, Switzerland).

[3] = system: BEAS-2B (non-malignant bronchial epithelial); test: MTT viability assay, BEAS-2B; type: cell-based; details: BEAS-2B non-malignant, 72 h, MTT; for CC50: read-out: LC50 (the source's name)
Description: as §2, §3, §4

[4] = system: thioredoxin reductase (TrxR1); test: Thioredoxin reductase activity assay (NADPH consumption); type: biochemical; details: 100 nM TrxR1, 227 μM NADPH, TE buffer pH 8, 45 min
Description: The assay was performed as previously described, but in a final volume of 200 μL in a 96-well plate. Reaction started after addition of 133 μL of TE buffer (20 mM Tris, 2 mM EDTA, pH = 8), 0.227 mM NADPH (freshly prepared) to different concentrations of compounds solved in DMSO and TrxR1 (final concentration 100 nM). NADPH consumption was followed measuring absorbance decrease at 340 nm in a VersaMax microplate reader (Molecular Devices, Sunnyvale, CA, USA) over 45 min. A background sample with DMSO without the compounds was included and subtracted from the values.
as §1

Substance | reduction by GSH in the presence or absence of glutaredoxin (NADPH consumption) [1] | GI50 [2] [µM] | TGI [2] [µM] | CC50 [2] [µM] | GI50 [3] [µM] | TGI [3] [µM] | CC50 [3] [µM] | reduction by TrxR1 (NADPH consumption) [4]
Methyl 3-chlorothiophen-2-carboselenoate [Compound 5] | not reduced | 3.1 ± 0.9 | 6.9 ± 1.1 | 35.9 ± 4.4 | 2.7 ± 0.5 | 5.3 ± 0.7 | 8 ± 1 | substrates only for TrxR1
Dimethyl 2,5-furandicarboselenoate [Compound 15] | not reduced | 1.8 ± 0.9 | 7.2 ± 1.9 | 57 ± 4 | 2.6 ± 0.8 | 5.6 ± 0.9 | 8.6 ± 1.2 | substrates only for TrxR1
